Measurements published in the NIST ThermoML archive (doi:10.1021/je9001653).
Values joined by “and” are separate entries in the source; they are usually repeats but may differ in a detail not shown here. Identical values can stand only once.

CC(=O)[CH-]C(C)=O.CC(=O)[CH-]C(C)=O.[Cu+2] [bis(2,4-pentanedionato-O,O')copper]
Crystal
Conditions | vapor or sublimation pressure [kPa]
367.65 K | 2.2e-05
372.42 K | 3.9e-05
376.95 K | 6.8e-05
381.83 K | 0.00011
386.45 K | 0.000172
388.98 K | 0.000201
395.55 K | 0.000398
398.5 K | 0.000601
400.64 K | 0.000705
403.26 K | 0.000875
405.05 K | 0.00118
414.35 K | 0.00257
417.53 K | 0.00387
423.85 K | 0.00479
433.65 K | 0.00927
442.85 K | 0.0199

c1cc2ccc3cccc4ccc(c1)c2c34 [pyrene]
Crystal 1
Conditions | vapor or sublimation pressure [kPa]
341.45 K | 7.5e-05
351.05 K | 0.000171
369.85 K | 0.000882
373.95 K | 0.00147
379.55 K | 0.00197
383.95 K | 0.00472
389.05 K | 0.00539
392.95 K | 0.00846
398.55 K | 0.01067
402.05 K | 0.01662
408.05 K | 0.02731

c1ccc2cc3ccccc3cc2c1 [anthracene]
Crystal
Conditions | vapor or sublimation pressure
339.25 K | 0.000104 kPa
348.35 K | 0.000289 kPa
360.45 K | 0.000978 kPa
365.66 K | 0.00158 kPa
373.95 K | 0.00311 kPa
376.95 K | 0.00358 kPa
379.55 K | 0.00416 kPa
386.45 K | 0.00813 kPa
389.05 K | 0.00875 kPa and 0.00962 kPa
392.95 K | 0.01486 kPa
393.75 K | 0.01211 kPa and 0.01243 kPa
398.05 K | 0.01765 kPa
398.55 K | 0.01813 kPa and 0.0185 kPa
